Results reported in PubChem BioAssay AID330 (DTP/NCI, 2004).
“And” between values parts separate entries of the source, which are not always exact repeats. Identical values can stand only once. Inconclusive results and toxic doses are left out. Peptide text beside a SMILES is read from it. * marks the point of attachment. Cbz = O=C(OCc1ccccc1)*

Test system: P388 leukemia ip, CD2F1 mice, survival T/C
Experiment: NCI In Vivo Anticancer Drug Screen. Data for tumor model P388 Leukemia (intraperitoneal) in CD2F1 (CDF1) mice
Settings: endpoint: median survival time, higher = longer survival
How it was run: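 Mice carrying the transplanted tumor received test compound or vehicle. Survival was recorded in each group, and the value is the treated-group measurement divided by that of the vehicle-treated control group.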

[1] = dose: 50.0 mg/kg/injection, schedule: Q01DX009 (ip), vehicle: Klucel (hydroxypropylcellulose) (HPC)
[2] = dose: 50.0 mg/kg/injection, schedule: Q01DX005 (ip), vehicle: saline with Tween-80
[3] = dose: 100.0 mg/kg/injection, schedule: Q01DX005 (ip), vehicle: saline with Tween-80
[4] = dose: 200.0 mg/kg/injection, schedule: Q01DX005 (ip), vehicle: saline with Tween-80
[5] = dose: 50.0 mg/kg/injection, schedule: Q01DX005 (ip), vehicle: Klucel (hydroxypropylcellulose) (HPC)
[6] = dose: 100.0 mg/kg/injection, schedule: Q01DX005 (ip), vehicle: Klucel (hydroxypropylcellulose) (HPC)
[7] = dose: 200.0 mg/kg/injection, schedule: Q01DX005 (ip), vehicle: Klucel (hydroxypropylcellulose) (HPC)
[8] = dose: 12.5 mg/kg/injection, schedule: Q01DX009 (ip), vehicle: saline
[9] = dose: 25.0 mg/kg/injection, schedule: Q01DX009 (ip), vehicle: saline
[10] = dose: 50.0 mg/kg/injection, schedule: Q01DX009 (ip), vehicle: saline
[11] = dose: 100.0 mg/kg/injection, schedule: Q01DX009 (ip), vehicle: saline
[12] = dose: 200.0 mg/kg/injection, schedule: Q01DX009 (ip), vehicle: saline
[13] = dose: 100.0 mg/kg/injection, schedule: Q01DX001 (ip), vehicle: Klucel (hydroxypropylcellulose) (HPC)
[14] = dose: 200.0 mg/kg/injection, schedule: Q01DX001 (ip), vehicle: Klucel (hydroxypropylcellulose) (HPC)
[15] = dose: 400.0 mg/kg/injection, schedule: Q01DX001 (ip), vehicle: Klucel (hydroxypropylcellulose) (HPC)
[16] = dose: 60.0 mg/kg/injection, schedule: Q01DX005 (ip), vehicle: saline with Tween-80
[17] = dose: 15.0 mg/kg/injection, schedule: Q01DX005 (ip), vehicle: saline with Tween-80

Compound: Nc1nc2ncc(CCNc3ccc(C(=O)NC(CCC(=O)O)C(=O)O)cc3)nc2c(=O)[nH]1 (stereo not given)
- T/C (dose: 12.5 mg/kg/injection, schedule: Q01DX009 (ip), vehicle: Klucel (hydroxypropylcellulose) (HPC)): 98 % of control
- T/C (dose: 25.0 mg/kg/injection, schedule: Q01DX009 (ip), vehicle: Klucel (hydroxypropylcellulose) (HPC)): 103 % of control
- T/C [1]: 107 % of control
- T/C (dose: 100.0 mg/kg/injection, schedule: Q01DX009 (ip), vehicle: Klucel (hydroxypropylcellulose) (HPC)): 93 % of control

Compound: CC1=CNC(=O)CC(C)(C)C1
- T/C [2]: 105 % of control
- T/C [3]: 105 % of control
- T/C [4]: 104 % of control

Compound: O=C1NC(O)c2cccc(F)c2O1 (stereo not given)
- T/C [2]: 100 % of control
- T/C [3]: 102 % of control

Compound: CCOC(=O)/C(C#N)=C/Nc1cc(C(=O)OC)ccc1C
- T/C [2]: 88 % of control
- T/C [3]: 90 % of control

Compound: O=C/C(=N/Nc1ccc([N+](=O)[O-])cc1)c1ccccc1
- T/C (dose: 37.5 mg/kg/injection, schedule: Q01DX009 (ip), vehicle: saline with Tween-80): 94 % of control
- T/C (dose: 75.0 mg/kg/injection, schedule: Q01DX009 (ip), vehicle: saline with Tween-80): 90 % of control
- T/C (dose: 150.0 mg/kg/injection, schedule: Q01DX009 (ip), vehicle: saline with Tween-80): 86 % of control

Compound: CC(=O)O[C@@H]1C[C@@H]2[C@@]3(C)CC[C@@H](OC(=O)CC(=O)O)C(C)(C)[C@@H]3CC[C@@]2(C)[C@]2(C)CCCC([C@]3(C)CC[C@H](C(C)(C)O)O3)[C@@H]12 (stereo not given in full)
- T/C (dose: 25.0 mg/kg/injection, schedule: Q01DX005 (ip), vehicle: Klucel (hydroxypropylcellulose) (HPC)): 92 % of control
- T/C [5]: 99 % of control
- T/C [6]: 92 % of control and 97 % of control
- T/C [7]: 86 % of control and 98 % of control
- T/C (dose: 400.0 mg/kg/injection, schedule: Q01DX005 (ip), vehicle: Klucel (hydroxypropylcellulose) (HPC)): 91 % of control

Compound: C[N+](C)=c1ccc2nc3ccc(N)cc3sc-2c1
- T/C (dose: 3.13 mg/kg/injection, schedule: Q01DX009 (ip), vehicle: saline): 106 % of control
- T/C (dose: 6.25 mg/kg/injection, schedule: Q01DX009 (ip), vehicle: saline with Tween-80): 87 % of control
- T/C (dose: 6.25 mg/kg/injection, schedule: Q01DX009 (ip), vehicle: saline): 94 % of control
- T/C [8]: 95 % of control
- T/C (dose: 25.0 mg/kg/injection, schedule: Q01DX009 (ip), vehicle: saline with Tween-80): 102 % of control and 103 % of control
- T/C [9]: 107 % of control
- T/C (dose: 50.0 mg/kg/injection, schedule: Q01DX009 (ip), vehicle: saline with Tween-80): 95 % of control
- T/C [10]: 104 % of control

Compound: O=C(CBr)N1c2ccccc2S(=O)(=O)c2ccc3ccccc3c21
- T/C [1]: 116 % of control and 122 % of control
- T/C (dose: 200.0 mg/kg/injection, schedule: Q01DX009 (ip), vehicle: Klucel (hydroxypropylcellulose) (HPC)): 119 % of control

Compound: O=C1CNC(=O)C(Cc2c[nH]c3ccccc23)N1 (stereo not given)
- T/C [10]: 100 % of control
- T/C [11]: 96 % of control
- T/C [12]: 100 % of control

Compound: CC(/C=N/NC1=NCCN1)=N/NC1=NCCN1
- T/C (dose: 50.0 mg/kg/injection, schedule: Q01DX005 (ip), vehicle: saline): 102 % of control
- T/C (dose: 100.0 mg/kg/injection, schedule: Q01DX005 (ip), vehicle: saline): 98 % of control
- T/C (dose: 200.0 mg/kg/injection, schedule: Q01DX005 (ip), vehicle: saline): 99 % of control

Compound: CCC(C)C(NC(=O)OCc1ccccc1)C(=O)NC(CCSC)C(=O)O (stereo not drawn) (Cbz-Ile-Met-OH; configuration not given here)
- T/C [5]: 99 % of control
- T/C [6]: 100 % of control
- T/C [7]: 96 % of control

Compound: N=C(N)c1ccc2oc(/C=C/c3nc4ccc(C(=N)N)cc4[nH]3)cc2c1
- T/C [13]: 98 % of control
- T/C [14]: 96 % of control
- T/C [15]: 98 % of control

Compound: COC(CNCc1ccccc1)OC
- T/C (dose: 37.5 mg/kg/injection, schedule: Q04DX003 (ip), vehicle: saline): 98 % of control
- T/C (dose: 75.0 mg/kg/injection, schedule: Q04DX003 (ip), vehicle: saline): 104 % of control
- T/C (dose: 150.0 mg/kg/injection, schedule: Q04DX003 (ip), vehicle: saline): 95 % of control
- T/C (dose: 300.0 mg/kg/injection, schedule: Q04DX003 (ip), vehicle: saline): 98 % of control

Compound: Cc1cc(C)cc([C@H](C)N=Cc2cc(Br)ccc2O)c1
- T/C (dose: 100.0 mg/kg/injection, schedule: Q04DX002 (ip), vehicle: saline with Tween-80): 100 % of control
- T/C (dose: 200.0 mg/kg/injection, schedule: Q04DX002 (ip), vehicle: saline with Tween-80): 100 % of control
- T/C (dose: 400.0 mg/kg/injection, schedule: Q04DX002 (ip), vehicle: saline with Tween-80): 108 % of control

Compound: Nc1nnc(-c2ccc[n+]([O-])c2)o1
- T/C [16]: 96 % of control
- T/C (dose: 120.0 mg/kg/injection, schedule: Q01DX005 (ip), vehicle: saline with Tween-80): 102 % of control
- T/C (dose: 240.0 mg/kg/injection, schedule: Q01DX005 (ip), vehicle: saline with Tween-80): 105 % of control

Compound: Nc1n[n+](-c2ccc(Cl)cc2)no1
- T/C (dose: 3.13 mg/kg/injection, schedule: Q01DX009 (ip), vehicle: water): 108 % of control
- T/C (dose: 6.25 mg/kg/injection, schedule: Q01DX009 (ip), vehicle: water): 102 % of control and 124 % of control
- T/C (dose: 12.5 mg/kg/injection, schedule: Q01DX009 (ip), vehicle: water): 124 % of control
- T/C (dose: 25.0 mg/kg/injection, schedule: Q01DX009 (ip), vehicle: water): 155 % of control

Compound: NCCCC(C(=O)O)N(C(=O)OCc1ccccc1)C(=O)OCc1ccccc1 (stereo not given)
- T/C [2]: 97 % of control
- T/C [3]: 101 % of control
- T/C [4]: 90 % of control

Compound: c1ccc(CCNc2ncnc3nc[nH]c23)cc1
- T/C (dose: 12.5 mg/kg/injection, schedule: Q01DX009 (ip), vehicle: other): 102 % of control
- T/C (dose: 25.0 mg/kg/injection, schedule: Q01DX009 (ip), vehicle: other): 101 % of control
- T/C (dose: 50.0 mg/kg/injection, schedule: Q01DX009 (ip), vehicle: other): 100 % of control
- T/C (dose: 100.0 mg/kg/injection, schedule: Q01DX009 (ip), vehicle: other): 101 % of control
- T/C (dose: 200.0 mg/kg/injection, schedule: Q01DX009 (ip), vehicle: other): 102 % of control

Compound: O=C(Nc1ccccc1)N1c2ccccc2SC1c1ccco1 (stereo not given)
- T/C [2]: 101 % of control
- T/C [3]: 100 % of control
- T/C [4]: 92 % of control

Compound: CN(CC(N)=O)C(=O)N(CCCl)N=O
- T/C [17]: 160 % of control
- T/C (dose: 30.0 mg/kg/injection, schedule: Q01DX005 (ip), vehicle: saline with Tween-80): 201 % of control
- T/C [16]: 263 % of control

Compound: CC(C)(C)[Si](C)(C)O[C@H]1C=C(S(=O)(=O)c2ccccc2)[C@H](O)C1
- T/C (dose: 60.0 mg/kg/injection, schedule: Q01DX005 (ip), vehicle: Klucel (hydroxypropylcellulose) (HPC)): 100 % of control
- T/C (dose: 120.0 mg/kg/injection, schedule: Q01DX005 (ip), vehicle: Klucel (hydroxypropylcellulose) (HPC)): 102 % of control
- T/C (dose: 240.0 mg/kg/injection, schedule: Q01DX005 (ip), vehicle: Klucel (hydroxypropylcellulose) (HPC)): 100 % of control

Compound: C/C(=C\C=C1\N(C)c2ccccc2C1(C)C)N=C(C#N)C#N
- T/C (dose: 50.0 mg/kg/injection, schedule: Q04DX003 (ip), vehicle: saline with Tween-80): 93 % of control
- T/C (dose: 100.0 mg/kg/injection, schedule: Q04DX003 (ip), vehicle: saline with Tween-80): 91 % of control
- T/C (dose: 200.0 mg/kg/injection, schedule: Q04DX003 (ip), vehicle: saline with Tween-80): 96 % of control

Compound: COC(=O)CS(=O)(=O)CCCCS(=O)(=O)CC(=O)OC
- T/C [10]: 99 % of control
- T/C [11]: 99 % of control
- T/C [12]: 103 % of control

Compound: Cc1ncc(CSC(=N)N)n1Cc1ccccc1
- T/C (dose: 8.5 mg/kg/injection, schedule: Q01DX009 (ip), vehicle: saline): 115 % of control

Compound: N=C(N)C1CC1
- T/C [8]: 100 % of control
- T/C [9]: 100 % of control
- T/C [10]: 102 % of control

Compound: O=C(O)/C=C\C(=O)O.OO.[O]=[V]
- T/C (dose: 3.75 mg/kg/injection, schedule: Q01DX005 (ip), vehicle: saline with Tween-80): 100 % of control
- T/C [17]: 109 % of control

Compound: O=c1c2c(oc3cc(OCC4CO4)ccc13)CCC2 (stereo not given)
- T/C [5]: 93 % of control
- T/C [6]: 88 % of control
- T/C [7]: 95 % of control

Compound: O=c1c2ccc(Cl)cc2nc2n1OCC2
- T/C [13]: 106 % of control
- T/C [14]: 100 % of control
- T/C [15]: 101 % of control
